# In patent publication US8580918B2, “Peptidic GLP-2 agonists” (Ferring B.V., priority 2009, dated 2013):
# Where a SMILES comes first, the peptide text is derived from it. [ ]: non-standard residue; d: D form. The star is where a group is joined. 1Nal = N[C@@H](Cc1cccc2ccccc12)C(=O)O; Nle = CCCC[C@H](N)C(=O)O; NHIsopentyl = CC(C)CCN*
# Test: Pharmacokinetics in rats after intravenous bolus injection (systemic clearance)
# Type: in vivo
# Conditions: rat, plasma, 0.2 mg FB/kg, adult male Sprague-Dawley rats, i.v. bolus, dose 0.20 mg FB/kg, read-out: CL (ml/kg/min) Average
# Method: Pharmacokinetic (PK) parameters of illustrative agonists of the GLP-2 receptor were determined in adult male Sprague-Dawley rats post intravenous bolus injection of compounds at doses of 0.1-1.0 mg/kg. Three or four doubly cannulated animals per compound were dosed via jugular vein, blood samples were collected at several intervals via carotid artery, and plasma samples were prepared from whole blood using K2EDTA as anticoagulant. Subsequent bioanalysis of samples included compound extraction and plasma concentration determination using standard LC/MS/MS methods. Analyte concentration was calculated from internal standard normalized peak area and calibration curves.
# For calculation of PK parameters the compound concentration-time curves were analyzed with the noncompartmental data analysis software package PK Solutions 2.0™ (Summit Research Services, Montrose Colo.). The systemic clearance per kg body weight (CL) was calculated as the dose per kg body weight divided by the AUC extrapolated to infinity based on trapezoid calculation (AUC∞). Values reported are the arithmetic mean and standard deviation from the number of animals used for each compound as indicated on Table 3.
row,Compound,clearance [mL/kg/min]
1,"CCCC[C@H](NC(=O)[C@H](CCC(=O)O)NC(=O)[C@H](CC(=O)O)NC(=O)[C@H](CO)NC(=O)[C@H](Cc1ccccc1)NC(=O)[C@H](CO)NC(=O)[C@@H](C)NC(=O)[C@H](CC(=O)O)NC(=O)CNC(=O)[C@@H](N)Cc1cnc[nH]1)C(=O)N[C@@H](CC(N)=O)C(=O)N[C@H](C(=O)N[C@H](C(=O)N[C@@H](CC(C)C)C(=O)N[C@@H](CC(=O)O)C(=O)N[C@@H](CC(N)=O)C(=O)N[C@@H](CC(C)C)C(=O)N[C@@H](C)C(=O)N[C@@H](C)C(=O)N[C@@H](CCCNC(=N)N)C(=O)N[C@@H](CC(=O)O)C(=O)N[C@@H](Cc1ccccc1)C(=O)N[C@H](C(=O)N[C@@H](CC(N)=O)C(=O)N[C@@H](Cc1c[nH]c2ccccc12)C(=O)N[C@@H](CC(C)C)C(=O)N[C@H](C(=O)N[C@@H](CCC(N)=O)C(=O)N[C@H](C(=O)N[C@@H](CCCCN)C(N)=O)[C@@H](C)O)[C@@H](C)CC)[C@@H](C)CC)[C@@H](C)CC)[C@@H](C)O [Compound 1, [Gly2,D-Ala4,Nle10] hGLP-2 (1-30)-NH2] (H-HGD[dA]SFSDE[Nle]NTILDNLAARDFINWLIQTK-NH2)",7.1
2,"CCCC[C@H](NC(=O)[C@H](CCC(=O)O)NC(=O)[C@H](CC(=O)O)NC(=O)[C@H](CO)NC(=O)[C@H](Cc1ccccc1)NC(=O)[C@H](CO)NC(=O)CNC(=O)[C@H](CC(=O)O)NC(=O)CNC(=O)[C@@H](N)Cc1c[nH]cn1)C(=O)N[C@@H](CC(N)=O)C(=O)N[C@H](C(=O)N[C@H](C(=O)N[C@@H](CC(C)C)C(=O)N[C@@H](CC(=O)O)C(=O)N[C@@H](CC(N)=O)C(=O)N[C@@H](CC(C)C)C(=O)N[C@@H](C)C(=O)N[C@@H](C)C(=O)N[C@@H](CCCNC(=N)N)C(=O)N[C@@H](CC(=O)O)C(=O)N[C@@H](Cc1ccccc1)C(=O)N[C@H](C(=O)N[C@@H](CC(N)=O)C(=O)N[C@@H](Cc1c[nH]c2ccccc12)C(=O)N[C@@H](CC(C)C)C(=O)N[C@H](C(=O)N[C@@H](CCC(N)=O)C(=O)N[C@H](C(=O)N[C@@H](CCCCN)C(=O)NCCC(C)C)[C@@H](C)O)[C@@H](C)CC)[C@@H](C)CC)[C@@H](C)CC)[C@@H](C)O [Compound 5, [Gly2,Nle10] hGLP-2 (1-30)-NH-i-Am] (H-HGDGSFSDE[Nle]NTILDNLAARDFINWLIQTK-NHIsopentyl)",1.2
3,"CCCC[C@H](NC(=O)[C@H](CCC(=O)O)NC(=O)[C@H](CC(=O)O)NC(=O)[C@H](CO)NC(=O)[C@H](Cc1ccccc1)NC(=O)[C@H](CO)NC(=O)CNC(=O)[C@H](CC(=O)O)NC(=O)CNC(=O)[C@@H](N)Cc1c[nH]cn1)C(=O)N[C@@H](CC(N)=O)C(=O)N[C@H](C(=O)N[C@H](C(=O)N[C@@H](CC(C)C)C(=O)N[C@@H](CC(=O)O)C(=O)N[C@@H](CC(N)=O)C(=O)N[C@@H](CC(C)C)C(=O)N[C@@H](C)C(=O)N[C@@H](C)C(=O)N[C@@H](CCCNC(=N)N)C(=O)N[C@@H](CC(=O)O)C(=O)N[C@@H](Cc1ccccc1)C(=O)N[C@H](C(=O)N[C@@H](CC(N)=O)C(=O)N[C@@H](Cc1c[nH]c2ccccc12)C(=O)N[C@@H](CC(C)C)C(=O)N[C@H](C(=O)N[C@@H](CCC(N)=O)C(=O)N[C@H](C(=O)N[C@@H](CCCCN)C(=O)NCC)[C@@H](C)O)[C@@H](C)CC)[C@@H](C)CC)[C@@H](C)CC)[C@@H](C)O [Compound 6, [Gly2,Nle10] hGLP-2 (1-30)-NH—Et] (H-HGDGSFSDE[Nle]NTILDNLAARDFINWLIQTK-NHEt)",6.3
4,"CCCC[C@H](NC(=O)[C@H](CCC(=O)O)NC(=O)[C@H](CC(=O)O)NC(=O)[C@H](CO)NC(=O)[C@H](Cc1ccccc1)NC(=O)[C@H](CO)NC(=O)CNC(=O)[C@H](CC(=O)O)NC(=O)CNC(=O)[C@@H](N)Cc1c[nH]cn1)C(=O)N[C@@H](CC(N)=O)C(=O)N[C@H](C(=O)N[C@H](C(=O)N[C@@H](CC(C)C)C(=O)N[C@@H](CC(=O)O)C(=O)N[C@@H](CC(C)C)C(=O)N[C@@H](CC(C)C)C(=O)N[C@@H](C)C(=O)N[C@@H](C)C(=O)N[C@@H](CCCNC(=N)N)C(=O)N[C@@H](CC(=O)O)C(=O)N[C@@H](Cc1ccccc1)C(=O)N[C@H](C(=O)N[C@@H](CC(N)=O)C(=O)N[C@@H](Cc1c[nH]c2ccccc12)C(=O)N[C@@H](CC(C)C)C(=O)N[C@H](C(=O)N[C@@H](CCC(N)=O)C(=O)N[C@H](C(=O)N[C@@H](CCCCN)C(N)=O)[C@@H](C)O)[C@@H](C)CC)[C@@H](C)CC)[C@@H](C)CC)[C@@H](C)O [Compound 11, [Gly2,Nle10,Leu16] hGLP-2 (1-30)-NH2] (H-HGDGSFSDE[Nle]NTILDLLAARDFINWLIQTK-NH2)",0.84

# Further lines, results first:
row,clearance [mL/kg/min],Compound
1,1.2,"CCCC[C@H](NC(=O)[C@H](CCC(=O)O)NC(=O)[C@H](CC(=O)O)NC(=O)[C@H](CO)NC(=O)[C@H](Cc1ccccc1)NC(=O)[C@H](CO)NC(=O)CNC(=O)[C@H](CC(=O)O)NC(=O)CNC(=O)[C@@H](N)Cc1cnc[nH]1)C(=O)N[C@H](Cc1ccccc1)C(=O)N[C@H](C(=O)N[C@H](C(=O)N[C@@H](CC(C)C)C(=O)N[C@@H](CC(=O)O)C(=O)N[C@@H](CC(N)=O)C(=O)N[C@@H](CC(C)C)C(=O)N[C@@H](C)C(=O)N[C@@H](C)C(=O)N[C@@H](CCCNC(=N)N)C(=O)N[C@@H](CC(=O)O)C(=O)N[C@@H](Cc1ccccc1)C(=O)N[C@H](C(=O)N[C@@H](CC(N)=O)C(=O)N[C@@H](Cc1c[nH]c2ccccc12)C(=O)N[C@@H](CC(C)C)C(=O)N[C@H](C(=O)N[C@@H](CCC(N)=O)C(=O)N[C@H](C(=O)N[C@@H](CCCCN)C(N)=O)[C@@H](C)O)[C@@H](C)CC)[C@@H](C)CC)[C@@H](C)CC)[C@@H](C)O [Compound 13, [Gly2,Nle10,D-Phe11] hGLP-2 (1-30)-NH2] (H-HGDGSFSDE[Nle][dF]TILDNLAARDFINWLIQTK-NH2)"
2,0.43,"CCCC[C@H](NC(=O)[C@H](CCC(=O)O)NC(=O)[C@H](CC(=O)O)NC(=O)[C@H](CO)NC(=O)[C@H](Cc1ccccc1)NC(=O)[C@H](CO)NC(=O)CNC(=O)[C@H](CC(=O)O)NC(=O)CNC(=O)[C@@H](N)Cc1cnc[nH]1)C(=O)N[C@@H](CC(N)=O)C(=O)N[C@H](C(=O)N[C@H](C(=O)N[C@@H](CC(C)C)C(=O)N[C@@H](CC(=O)O)C(=O)N[C@@H](Cc1cccc2ccccc12)C(=O)N[C@@H](CC(C)C)C(=O)N[C@@H](C)C(=O)N[C@@H](C)C(=O)N[C@@H](CCCNC(=N)N)C(=O)N[C@@H](CC(=O)O)C(=O)N[C@@H](Cc1ccccc1)C(=O)N[C@H](C(=O)N[C@@H](CC(N)=O)C(=O)N[C@@H](Cc1c[nH]c2ccccc12)C(=O)N[C@@H](CC(C)C)C(=O)N[C@H](C(=O)N[C@@H](CCC(N)=O)C(=O)N[C@H](C(=O)N[C@@H](CCCCN)C(N)=O)[C@@H](C)O)[C@@H](C)CC)[C@@H](C)CC)[C@@H](C)CC)[C@@H](C)O [Compound 17, [Gly2,Nle10,1-Nal16] hGLP-2 (1-30)-NH2] (H-HGDGSFSDE[Nle]NTILD[1Nal]LAARDFINWLIQTK-NH2)"
3,1.2,"CCCC[C@H](NC(=O)[C@H](CCC(=O)O)NC(=O)[C@H](CC(=O)O)NC(=O)[C@H](CO)NC(=O)[C@H](Cc1ccccc1)NC(=O)[C@H](CO)NC(=O)CNC(=O)[C@H](CC(=O)O)NC(=O)CNC(=O)[C@@H](N)Cc1c[nH]cn1)C(=O)N[C@@H](CC(N)=O)C(=O)N[C@H](C(=O)N[C@H](C(=O)N[C@@H](CC(C)C)C(=O)N[C@@H](CC(=O)O)C(=O)N[C@@H](Cc1ccc(O)cc1)C(=O)N[C@@H](CC(C)C)C(=O)N[C@@H](C)C(=O)N[C@@H](C)C(=O)N[C@@H](CCCNC(=N)N)C(=O)N[C@@H](CC(=O)O)C(=O)N[C@@H](Cc1ccccc1)C(=O)N[C@H](C(=O)N[C@@H](CC(N)=O)C(=O)N[C@@H](Cc1c[nH]c2ccccc12)C(=O)N[C@@H](CC(C)C)C(=O)N[C@H](C(=O)N[C@@H](CCC(N)=O)C(=O)N[C@H](C(=O)N[C@@H](CCCCN)C(N)=O)[C@@H](C)O)[C@@H](C)CC)[C@@H](C)CC)[C@@H](C)CC)[C@@H](C)O [Compound 18, [Gly2,Nle10,Tyr16] hGLP-2 (1-30)-NH2] (H-HGDGSFSDE[Nle]NTILDYLAARDFINWLIQTK-NH2)"

# Same assay, conditions: rat, plasma, adult male Sprague-Dawley rats, i.v. bolus, dose 0.18 mg FB/kg, read-out: CL (ml/kg/min) Average
row,clearance [mL/kg/min],Compound
1,1.5,"CCCC[C@H](NC(=O)[C@H](CCC(=O)O)NC(=O)[C@H](CC(=O)O)NC(=O)[C@H](CO)NC(=O)[C@H](Cc1ccccc1)NC(=O)[C@H](CO)NC(=O)CNC(=O)[C@H](CC(=O)O)NC(=O)CNC(=O)[C@@H](N)Cc1c[nH]cn1)C(=O)N[C@@H](CC(N)=O)C(=O)N[C@H](C(=O)N[C@H](C(=O)N[C@@H](CC(C)C)C(=O)N[C@@H](CC(=O)O)C(=O)N[C@@H](CC(N)=O)C(=O)N[C@@H](CC(C)C)C(=O)N[C@@H](C)C(=O)N[C@@H](C)C(=O)N[C@@H](CCCNC(=N)N)C(=O)N[C@@H](CC(=O)O)C(=O)N[C@@H](Cc1ccccc1)C(=O)N[C@H](C(=O)N[C@@H](CC(N)=O)C(=O)N[C@@H](Cc1c[nH]c2ccccc12)C(=O)N[C@@H](CC(C)C)C(=O)N[C@H](C(=O)N[C@@H](CCCNC(=N)N)C(=O)N[C@H](C(=O)N[C@@H](CCCCN)C(=O)NCCC(C)C)[C@@H](C)O)[C@@H](C)CC)[C@@H](C)CC)[C@@H](C)CC)[C@@H](C)O [Compound 10, [Gly2,Nle10,Arg28] hGLP-2 (1-30)-NH-i-Am] (H-HGDGSFSDE[Nle]NTILDNLAARDFINWLIRTK-NHIsopentyl)"
